{"source": "patent US8765181B2", "about": "“Nano anticancer micelles of vinca alkaloids entrapped in polyethylene glycolylated phospholipids” (Beijing Diacrid Medical Technology Co., Ltd, priority 2005, dated 2014)", "tested_on": "Lewis lung cancer cells", "test": "Tumor growth inhibition assay in vivo of vinorelbine micellar preparation", "design": "species or system Balb/c mice", "details": "for Volume of tumor (mm^3): 5 mg/kg iv on the 1st, 8th and 15th day", "protocol": "Fresh Lewis lung cancer cells (ATTC, CRL-1642) were inoculated subcutaneously into the axillary region of right forelimb of Balb/c mice (1×10^7/ml, 0.2 ml/mice). The mice (17-19 g, female) bearing tumor were then randomly divided into three groups, i.e. control group, free vinorelbine group (F-VNR) and vinorelbine micelle group (M-VNR), 6 mice each group. Administration was carried out on the next day to the inoculation. The doses of both F-VNR and M-VNR were 5 mg/kg (drug concentration: 0.5 mg/ml), iv volume 0.1 ml/10 g body weight, and the dose of the control group was iv 0.1 ml/10 g body weight of physiological saline. Dosing was performed once a week and continued for three weeks (dosing on the 1st, 8th and 15th day, respectively), wherein the length (a) and width (b) of the tumors were measured with vernier caliper on the 7th, 10th, 14th, 17th, and 21th day, respectively. The volume of the tumor was calculated according the formula V=a×b^2/2. […] The experiment results were shown in FIG. 5 as well as following table.", "data": [{"compound": "CCC1=C[C@@H]2CN(C1)Cc1c([nH]c3ccccc13)[C@@](C(=O)OC)(c1cc3c(cc1OC)N(C)[C@H]1[C@@](O)(C(=O)OC)[C@H](OC(C)=O)[C@]4(CC)C=CCN5CC[C@]31[C@@H]54)C2", "note": "[F-VNR, vinorelbine]", "values": [{"measurement": "effect on growth of Lewis lung cancer tumor (in words)", "setting": "5 mg/kg iv once a week for three weeks", "result": "almost ineffective"}, {"measurement": "Volume of tumor (mm^3)", "setting": "7 days", "result": "217 ± 94.5", "unit": "mm^3"}, {"measurement": "Volume of tumor (mm^3)", "setting": "10 days", "result": "810.3 ± 407.6", "unit": "mm^3"}, {"measurement": "Volume of tumor (mm^3)", "setting": "14 days", "result": "1694.3 ± 789.1", "unit": "mm^3"}, {"measurement": "Volume of tumor (mm^3)", "setting": "17 days", "result": "2460.1 ± 1367.1", "unit": "mm^3"}, {"measurement": "Volume of tumor (mm^3)", "setting": "21 days", "result": "5163 ± 2623.8", "unit": "mm^3"}]}]}
